In the experiment the target is H1047R PIK3CA enzyme (Homo sapiens, UniProt P42336, H1047R). The experiment in a line: ADP-Glo Biochemical PIK3CA Kinase Assay. The protocol:
Compounds to be assayed were plated in 16 doses of 1:2 serial dilutions (20 nL volume each well) on a 1536-well plate, and the plate warmed to room temperature. PIK3CA enzyme (e.g. H1047R, E542K, E545K, or wild-type) (1 μL of 2 nM solution in Enzyme Assay Buffer (comprising 50 mM HEPES pH 7.4, 50 mM NaCl, 6 mM MgCl2, 5 mM DTT and 0.03% CHAPS)) was added and shaken for 10 seconds and preincubated for 30 minutes. To the well was added 1 μL of 200 μM ATP and 20 μM of diC8-PIP2 in Substrate Assay Buffer (50 mM HEPES pH7.4, 50 mM NaCl, 5 mM DTT and 0.03% CHAPS) to start the reaction, and the plate was shaken for 10 seconds, then spun briefly at 1500 rpm, and then incubated for 60 minutes at room temperature. The reaction was stopped by adding 2 μL of ADP-Glo reagent (Promega), and spinning briefly at 1500 rpm, and then incubating for 40 minutes. ADP-Glo Detection reagent (Promega) was added and the plate spun briefly at 1500 rpm, then incubated for 30 minutes.

The mark [1] stands for this setting: ADP-Glo biochemical PIK3CA kinase assay.

Our source for the IC50 values is patent US20250090540A1, “PI3K-ALPHA INHIBITORS AND METHODS OF USE THEREOF” (Relay Therapeutics, Inc., priority 2021, published 2025).

Each structure is given as a SMILES string. Like-named read-outs stand apart in the source and are kept apart here.

Chain of H1047R PIK3CA enzyme (P42336 whole entry H1047R): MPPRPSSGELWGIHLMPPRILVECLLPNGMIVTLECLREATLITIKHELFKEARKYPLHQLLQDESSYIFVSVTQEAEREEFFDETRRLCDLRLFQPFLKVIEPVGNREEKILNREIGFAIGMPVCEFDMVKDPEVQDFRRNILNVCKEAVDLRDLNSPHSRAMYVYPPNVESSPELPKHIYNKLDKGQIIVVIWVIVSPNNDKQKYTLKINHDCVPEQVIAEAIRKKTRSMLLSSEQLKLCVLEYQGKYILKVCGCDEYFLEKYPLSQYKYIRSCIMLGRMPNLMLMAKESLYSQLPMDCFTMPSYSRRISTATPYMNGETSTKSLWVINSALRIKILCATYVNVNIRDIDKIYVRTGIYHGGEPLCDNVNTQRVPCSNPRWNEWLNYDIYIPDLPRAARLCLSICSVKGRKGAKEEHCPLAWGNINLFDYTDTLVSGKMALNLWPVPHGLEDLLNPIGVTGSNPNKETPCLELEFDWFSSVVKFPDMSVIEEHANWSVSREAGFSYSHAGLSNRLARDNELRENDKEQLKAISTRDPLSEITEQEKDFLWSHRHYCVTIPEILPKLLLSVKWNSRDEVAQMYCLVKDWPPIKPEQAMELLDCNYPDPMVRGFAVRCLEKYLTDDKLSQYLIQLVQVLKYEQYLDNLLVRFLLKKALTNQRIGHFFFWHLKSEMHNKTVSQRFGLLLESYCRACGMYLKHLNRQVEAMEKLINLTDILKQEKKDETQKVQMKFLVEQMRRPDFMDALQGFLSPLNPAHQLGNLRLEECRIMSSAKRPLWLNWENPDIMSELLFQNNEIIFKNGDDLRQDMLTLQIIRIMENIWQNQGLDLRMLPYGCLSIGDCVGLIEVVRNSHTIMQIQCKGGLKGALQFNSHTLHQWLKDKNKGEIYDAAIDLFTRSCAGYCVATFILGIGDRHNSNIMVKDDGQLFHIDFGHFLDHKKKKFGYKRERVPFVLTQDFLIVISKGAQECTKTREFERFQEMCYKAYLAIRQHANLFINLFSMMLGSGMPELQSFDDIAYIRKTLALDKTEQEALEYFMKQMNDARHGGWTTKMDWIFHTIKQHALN
Chain of H1047R PIK3CA enzyme (P27986 whole entry partner): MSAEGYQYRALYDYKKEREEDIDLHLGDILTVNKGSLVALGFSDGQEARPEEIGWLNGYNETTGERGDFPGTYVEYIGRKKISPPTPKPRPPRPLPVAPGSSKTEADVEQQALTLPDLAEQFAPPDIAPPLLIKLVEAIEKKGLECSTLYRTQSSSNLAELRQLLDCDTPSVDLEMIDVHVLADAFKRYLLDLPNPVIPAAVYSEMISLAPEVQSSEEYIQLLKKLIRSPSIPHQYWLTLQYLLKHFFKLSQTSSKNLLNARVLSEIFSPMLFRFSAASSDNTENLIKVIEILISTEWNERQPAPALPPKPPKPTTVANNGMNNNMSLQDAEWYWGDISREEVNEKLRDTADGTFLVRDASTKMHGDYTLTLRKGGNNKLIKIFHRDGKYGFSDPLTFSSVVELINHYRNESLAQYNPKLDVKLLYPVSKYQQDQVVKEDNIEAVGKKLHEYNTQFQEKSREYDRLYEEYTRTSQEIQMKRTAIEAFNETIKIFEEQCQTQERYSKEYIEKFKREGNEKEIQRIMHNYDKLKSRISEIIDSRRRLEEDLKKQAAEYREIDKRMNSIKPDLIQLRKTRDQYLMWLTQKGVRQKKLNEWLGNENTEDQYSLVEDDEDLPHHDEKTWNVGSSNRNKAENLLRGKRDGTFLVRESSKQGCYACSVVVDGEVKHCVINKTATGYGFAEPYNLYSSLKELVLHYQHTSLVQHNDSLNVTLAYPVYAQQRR

What is called IC50 is the concentration that gives 50% inhibition. High values mean lower potency, low ones higher potency. Consider `Cc1ccccc1N[C@H]1CCN(C(=O)OC(C)(C)C)C[C@H]1C(=O)Nc1cc(F)cc(C(F)(F)F)c1` (racemic) [I-68], for which the IC50 lay within 10 to 100 µM. The same measure, in the same setting: in the case of `Cc1ccccc1N[C@H]1CCN(C(=O)OC(C)(C)C)C[C@@H]1C(=O)Nc1cc(F)cc(C(F)(F)F)c1` (racemic) [I-156] it was 10 to 100 µM; in that of `CNC(=O)N1CC[C@H](Nc2ccccc2C)[C@H](C(=O)Nc2cc(F)cc(C(F)(F)F)c2)C1` (racemic) [I-203], 10 to 100 µM. With `Cc1ccccc1N[C@H]1CCN(C(=O)C2(O)CC2)C[C@H]1C(=O)Nc1cc(F)cc(C(F)(F)F)c1` (racemic) [I-227], the IC50 is 10 to 100 µM. Consider `Cc1ccccc1N[C@H]1CCN(C(=O)C2(O)CC2)C[C@@H]1C(=O)Nc1cc(F)cc(C(F)(F)F)c1` (racemic) [I-228], for which the IC50 lay within 10 to 100 µM.

`CNC(=O)N1CC[C@@H](Nc2ccccc2C)[C@H](C(=O)Nc2cc(F)cc(C(F)(F)F)c2)C1` (racemic) [I-229] had an IC50 of 10 to 100 µM. As for `Cc1ccccc1N[C@H]1CCN(C(=O)CC2CCOCC2)C[C@H]1C(=O)Nc1cc(F)cc(C(F)(F)F)c1` (racemic) [I-251], the IC50 was in the range of 10 to 100 µM. On the same count and under the same terms, in the case of `Cc1ccccc1N[C@H]1CCN(C2CCC2)C[C@H]1C(=O)Nc1cc(F)cc(C(F)(F)F)c1` (racemic) [I-252] it was 10 to 100 µM; in that of `CNC(=O)c1cnc(N2C[C@H]3C[C@H]3c3ccccc32)c(NC(=O)c2csc3ccccc23)c1` (racemic) [I-253], 1 to 10 µM. `Cc1ccccc1N[C@H]1CCN(C(=O)CC2CCOCC2)C[C@@H]1C(=O)Nc1cc(F)cc(C(F)(F)F)c1` (racemic) [I-254] returned an IC50 of 10 to 100 µM. The same measure, in the same setting: in the case of `O=C(NC1CS(=O)(=O)C1)c1cnc(N2C[C@H]3C[C@H]3c3ccccc32)c(NC(=O)c2csc3ccccc23)c1` (racemic) [I-255] it was 0.5 to 1 µM; in that of `C[C@@H](NC(=O)c1cnc(N2CCCOc3ccccc32)c(NC(=O)c2csc3ccccc23)c1)c1cccnc1` (racemic) [I-278], 1 to 10 µM; in that of `CC1CN(c2ncc(C(=O)N[C@H](C)c3cccnc3)cc2NC(=O)c2csc3ccccc23)c2ccccc2O1` (mixture of isomers) [I-336], 1 to 10 µM. Still for that read-out and setting: to `CN1CC[C@H](NC(=O)c2cnc(N3CCOc4ccccc43)c(NC(=O)c3csc4ccccc34)c2)C1` (racemic) [I-349] belongs 0.5 to 1 µM.

In turn, `CNC(=O)c1cnc(N[C@@H]2CCOC2)c(NC(=O)c2cc(F)cc(C(F)(F)F)c2)c1` (racemic) [I-554] gave a concentration for half-maximal inhibition (IC50) under setting [1] of 1 to 10 µM. On the same count and under the same terms, to `CCOC(=O)[C@H]1CC[C@@H](NC(=O)c2cnc(Nc3ccccc3C)c(NC(=O)c3csc4ccccc34)c2)C1` (racemic) [I-653] belongs 0.5 to 1 µM.

Take `CCOC(=O)[C@@H]1CC[C@@H](NC(=O)c2cnc(Nc3ccccc3C)c(NC(=O)c3csc4ccccc34)c2)C1` (racemic) [I-654]: the IC50 under setting [1] is 1 to 10 µM.

`Cc1ccccc1[C@H]1NC(=O)C[C@@H]1C(=O)Nc1cc(F)cc(C(F)(F)F)c1` (racemic) [I-669]: under setting [1], the half-inhibitory concentration (IC50) was in the range of 1 to 10 µM. Same read-out and setting: to `O=C(N[C@H]1CCC[C@H]1N1CCOc2ccccc21)c1cc(F)cc(C(F)(F)F)c1` (racemic) [I-796] belongs 0.5 to 1 µM. With `Cc1ccccc1[C@@H]1Nc2ccccc2[C@H]1CNC(=O)c1cc(F)cc(C(F)(F)F)c1` (racemic) [I-808, 3-fluoro-N-(((2R,3S)-2-(o-tolyl)indolin-3-yl)methyl)-5-(trifluoromethyl)benzamide], the IC50 is 10 to 100 µM. On the same count and under the same terms, in the case of `CNC(=O)c1cnc(N[C@@H]2CCCC[C@@H]2CO)c(NC(=O)c2cc(F)cc(C(F)(F)F)c2)c1` (racemic) [I-812] it was 10 to 100 µM; in that of `O=C(Nc1cc(-c2ccc3ncnn3c2)cnc1N[C@H]1CCCC[C@H]1CO)c1cc(F)cc(C(F)(F)F)c1` (racemic) [I-817], 10 to 100 µM; in that of `O=C1C[C@H](CCO)[C@@H](CNC(=O)c2cc(F)cc(C(F)(F)F)c2)[C@H](c2cc(F)ccc2Cl)N1` (racemic) [I-821], 10 to 100 µM.

`O=C(N[C@@H]1CCC[C@H](O)[C@H]1c1cc(F)ccc1Cl)c1cc(F)cc(C(F)(F)F)c1` (racemic) [I-823, N-[(1R,2S,3S)-2-(2-chloro-5-fluorophenyl)-3-hydroxycyclohexyl]-3-fluoro-5-(trifluoromethyl)benzamide]: the IC50 was in the range of 10 to 100 µM. On the same count and under the same terms, to `CNC(=O)CN1CC(=O)N[C@H](c2cc(F)ccc2Cl)[C@H]1C(=O)NC1CCCC(C(F)(F)F)C1` (mixture of isomers) [I-825, trans-3-(2-chloro-5-fluorophenyl)-1-[(methylcarbamoyl)methyl]-5-oxo-N-[3-(trifluoromethyl)cyclohexyl]piperazine-2-carboxamide] belongs 10 to 100 µM.

Under setting [1], `CNC(=O)c1cnc(N2CCC[C@@H]3CCC[C@@H]32)c(NC(=O)c2csc3ccccc23)c1` (single isomer, unassigned) [I-633] displayed a half-maximal inhibitory concentration (IC50) of 1 to 10 µM. Still for that read-out and setting: in the case of `Cc1ccccc1Nc1ncc(C(=O)N[C@@H]2CC[C@@H](C(=O)O)C2)cc1NC(=O)c1csc2ccccc12` (single isomer, unassigned) [I-661] it was 1 to 10 µM. For `Cc1ccccc1Nc1ncc(C(=O)N[C@@H]2CCN(C)C2)cc1NC(=O)c1cc(F)cc(C(F)(F)F)c1` (stereo in doubt) [I-64], the IC50 lay within 1 to 10 µM. Same read-out and setting: to `CNC(=O)c1cnc(Nc2ccccc2C)c(NC(=O)[C@H](N)C2CCCCC2)c1` (stereo in doubt) [I-142] belongs 10 to 100 µM. The same measure, in the same setting: in the case of `CNC(=O)c1cnc(Nc2ccccc2C)c(NC(=O)[C@@H](N)C2CCCCC2)c1` (stereo in doubt) [I-159] it was 10 to 100 µM.

`CNC(=O)c1cnc(Nc2ccccc2C)c(NC(=O)c2cc(F)cc(Br)c2)c1` [I-2] had an IC50 of 0.5 to 1 µM. The compound `COC(=O)c1cnc(Nc2ccccc2C)c(NC(=O)c2cc(F)cc(C(F)(F)F)c2)c1` [I-3] returned a half-inhibitory concentration (IC50) of 1 to 10 µM. For `CNC(=O)c1cnc(Nc2ccccc2C)c(NC(=O)c2cc3c(F)cc(F)cc3[nH]2)c1` [I-5], the concentration for half-maximal inhibition (IC50) was 10 to 100 µM. Same read-out and setting: in the case of `Cc1ccccc1Nc1ncc(-c2cnn(C)c2)cc1NC(=O)c1cc(F)cc(C(F)(F)F)c1` [I-9] it was 10 to 100 µM; in that of `CNC(=O)c1cnc(Nc2ccccc2C)c(N(S(=O)(=O)c2ccc(F)cc2C)S(=O)(=O)c2ccc(F)cc2C)c1` [I-10], 10 to 100 µM; in that of `CNC(=O)c1cnc(Nc2ccccc2C)c(NC(=O)c2cc(Cl)ccc2OC)c1` [I-12], 10 to 100 µM. The compound `CNC(=O)c1cnc(Nc2ccccc2C)c(N(S(=O)(=O)c2ccccc2)S(=O)(=O)c2ccccc2)c1` [I-13] yielded an IC50 of 10 to 100 µM. Consider `CNC(=O)c1cnc(Nc2ccccc2C)c(NC(=O)Cc2ccc(OCc3ccccc3)c(OCc3ccccc3)c2)c1` [I-14], for which the IC50 is 10 to 100 µM.

In turn, `Cc1ccccc1Nc1ncc(C(=O)N2CCCC2)cc1NC(=O)c1cc(F)cc(C(F)(F)F)c1` [I-15] showed an IC50 of 10 to 100 µM. The same measure, in the same setting: in the case of `Cc1ccccc1Nc1ncc(C2=CCNCC2)cc1NC(=O)c1cc(F)cc(C(F)(F)F)c1` [I-16] it was 10 to 100 µM.

`Cc1ccccc1Nc1ncc(C(=O)O)cc1NC(=O)c1cc(F)cc(C(F)(F)F)c1` [I-17] registered an IC50 of 1 to 10 µM. Same read-out and setting: to `CNC(=O)c1cnc(Nc2ccccc2C)c(NC(=O)c2oc(C)nc2C)c1` [I-18] belongs 1 to 10 µM; to `Cc1cnc(Nc2ccccc2C)c(NC(=O)c2cc(F)cc(C(F)(F)F)c2)c1` [I-19], 10 to 100 µM; to `CNC(=O)c1cnc(Nc2ccccc2C)c(NS(=O)(=O)c2ccccc2)c1` [I-20], 1 to 10 µM. On the same count and under the same terms, in the case of `Cc1ccccc1Nc1ncc(C(=O)N2CCOCC2)cc1NC(=O)c1cc(F)cc(C(F)(F)F)c1` [I-22] it was 10 to 100 µM; in that of `CNC(=O)c1cnc(Nc2ccccc2C)c(NCc2ccccc2)c1` [I-23], 10 to 100 µM; in that of `CNC(=O)c1cnc(Nc2ccccc2)c([N+](=O)[O-])c1` [I-24], 10 to 100 µM. Same read-out and setting: to `CNC(=O)c1cnc(Nc2cccc(F)c2)c([N+](=O)[O-])c1` [I-25] belongs 10 to 100 µM; to `CNC(=O)c1cnc(Nc2ccccc2C)c(NC(=O)Cc2c(C)nc(N)[nH]c2=O)c1` [I-26], 10 to 100 µM; to `CNC(=O)c1cnc(Nc2cccc(F)c2)c(NC(=O)c2cc(F)cc(C(F)(F)F)c2)c1` [I-29], 10 to 100 µM. For `CNC(=O)c1cnc(Nc2ccccc2)c(N)c1` [I-31], the IC50 fell in the range of 10 to 100 µM. `CNC(=O)c1cnc(Nc2cccc(F)c2)c(N)c1` [I-32] returned a half-inhibitory concentration (IC50) of 10 to 100 µM.

For `CNC(=O)c1cnc(Nc2ccccc2)c(NC(=O)c2cc(F)cc(C(F)(F)F)c2)c1` [I-33], the half-maximal inhibitory concentration (IC50) lay in the range of 10 to 100 µM. On the same count and under the same terms, to `CNC(=O)c1cnc(Nc2ccccc2C)c(NCC2CC2)c1` [I-34] belongs 10 to 100 µM; to `CNC(=O)c1cnc(Nc2ccccc2C)c(NC(=O)Cc2cccc(Cl)c2)c1` [I-35], 10 to 100 µM.

`CNC(=O)c1cnc(N2CCc3ccccc32)c(NC(=O)c2cc(F)cc(C(F)(F)F)c2)c1` [I-37] returned a 50% inhibitory concentration (IC50) of 10 to 100 µM. In the case of `CNC(=O)c1cnc(Nc2ccccc2C#N)c(NC(=O)c2cc(F)cc(C(F)(F)F)c2)c1` [I-38], the IC50 lay within 10 to 100 µM.

Turning to `CNC(=O)c1cnc(Nc2cccc(C)c2)c(NC(=O)c2cc(F)cc(C(F)(F)F)c2)c1` [I-39], the IC50 lay within 1 to 10 µM.

With `CNC(=O)c1cnc(Nc2ccccc2C)c(NC(=O)c2cc3ccccc3o2)c1` [I-40], the half-inhibitory concentration (IC50) was 10 to 100 µM. On the same count and under the same terms, in the case of `CNC(=O)c1cnc(Nc2ccccc2C)c(NC(=O)c2ccccc2)c1` [I-43] it was 10 to 100 µM; in that of `CNC(=O)c1cnc(Nc2ccccc2C)c(NC(=O)c2coc3ccccc23)c1` [I-44], 1 to 10 µM.
